Converted amounts (≈) assume the structure as drawn. The source made the active and inactive calls. The rule behind the calls is not given here.
Key:
[1] = molecular target: T1, DNA topoisomerase 1 (Homo sapiens) (UniProt P11387); experiment: Inhibition of recombinant human DNA top1-mediated relaxation of pBR322 plasmid at 100 uM after 30 mins by agarose gel electrophoresis
T1 sequence (whole entry): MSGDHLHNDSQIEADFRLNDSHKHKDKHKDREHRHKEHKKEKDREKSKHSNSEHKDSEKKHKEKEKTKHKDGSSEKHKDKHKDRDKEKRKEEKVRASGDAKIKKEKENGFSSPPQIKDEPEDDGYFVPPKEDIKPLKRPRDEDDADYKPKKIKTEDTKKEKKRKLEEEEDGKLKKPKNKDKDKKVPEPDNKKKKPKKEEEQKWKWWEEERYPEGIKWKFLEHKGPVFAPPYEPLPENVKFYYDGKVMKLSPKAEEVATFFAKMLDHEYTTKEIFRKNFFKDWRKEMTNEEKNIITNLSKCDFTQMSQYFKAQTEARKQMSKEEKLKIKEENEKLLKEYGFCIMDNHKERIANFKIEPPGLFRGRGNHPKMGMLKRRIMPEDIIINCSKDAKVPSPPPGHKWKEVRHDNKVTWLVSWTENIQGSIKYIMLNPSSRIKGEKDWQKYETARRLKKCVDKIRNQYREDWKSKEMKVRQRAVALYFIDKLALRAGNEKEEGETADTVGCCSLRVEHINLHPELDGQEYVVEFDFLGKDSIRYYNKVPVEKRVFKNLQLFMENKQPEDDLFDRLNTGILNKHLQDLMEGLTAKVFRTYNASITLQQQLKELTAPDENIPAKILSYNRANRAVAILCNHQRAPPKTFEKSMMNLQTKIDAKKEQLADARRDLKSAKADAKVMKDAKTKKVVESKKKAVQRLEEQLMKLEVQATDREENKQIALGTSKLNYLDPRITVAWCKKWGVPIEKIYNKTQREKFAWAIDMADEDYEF

[2] = molecular target: T1, DNA topoisomerase 1 (Homo sapiens); experiment: Inhibition of recombinant human DNA top1-mediated relaxation of pBR322 plasmid at 25 uM after 30 mins by agarose gel electrophoresis
[3] = molecular target: DNA topoisomerase 2-alpha (Homo sapiens) (UniProt P11388); experiment: Inhibition of recombinant human top2 alpha-mediated kDNA decatenation compound added post enzyme-DNA incubation by agarose gel electrophoresis in presence of DTT
MCF7 = experiment: Cytotoxicity against human MCF7 cells assessed as growth inhibition by SRB assay; type: functional, cell-based
UACC-62 = experiment: Cytotoxicity against human UACC62 cells assessed as growth inhibition by SRB assay; type: functional, cell-based
786-0 = experiment: Cytotoxicity against human 786-0 cells assessed as growth inhibition by SRB assay; type: functional, cell-based
[4] = molecular target: DNA topoisomerase 2-alpha (Homo sapiens) (UniProt P11388); experiment: Inhibition of recombinant human top2 alpha-mediated kDNA decatenation at 25 uM after 30 mins by agarose gel electrophoresis
[5] = molecular target: DNA topoisomerase 2-alpha (Homo sapiens) (UniProt P11388); experiment: Inhibition of recombinant human top2 alpha-mediated kDNA decatenation compound added post enzyme-DNA incubation by agarose gel electrophoresis
B16-F10 = experiment: Cytotoxicity against mouse B16F10 cells assessed as growth inhibition by SRB assay; type: functional
[6] = molecular target: DNA topoisomerase 2-alpha (Homo sapiens) (UniProt P11388); experiment: Inhibition of recombinant human top2 alpha-mediated kDNA decatenation at 1 uM after 30 mins by agarose gel electrophoresis
[7] = molecular target: T1, DNA topoisomerase 1 (Homo sapiens); experiment: Inhibition of recombinant human DNA top1-mediated relaxation of pBR322 plasmid at 1 uM after 30 mins by agarose gel electrophoresis
[8] = molecular target: DNA topoisomerase 2-alpha (Homo sapiens) (UniProt P11388); conditions: 100 uM
Description: Inhibition of recombinant human top2 alpha-mediated kDNA decatenation at 100 uM after 30 mins by agarose gel electrophoresis

Sequence of DNA topoisomerase 2-alpha (Homo sapiens) (P11388 whole entry): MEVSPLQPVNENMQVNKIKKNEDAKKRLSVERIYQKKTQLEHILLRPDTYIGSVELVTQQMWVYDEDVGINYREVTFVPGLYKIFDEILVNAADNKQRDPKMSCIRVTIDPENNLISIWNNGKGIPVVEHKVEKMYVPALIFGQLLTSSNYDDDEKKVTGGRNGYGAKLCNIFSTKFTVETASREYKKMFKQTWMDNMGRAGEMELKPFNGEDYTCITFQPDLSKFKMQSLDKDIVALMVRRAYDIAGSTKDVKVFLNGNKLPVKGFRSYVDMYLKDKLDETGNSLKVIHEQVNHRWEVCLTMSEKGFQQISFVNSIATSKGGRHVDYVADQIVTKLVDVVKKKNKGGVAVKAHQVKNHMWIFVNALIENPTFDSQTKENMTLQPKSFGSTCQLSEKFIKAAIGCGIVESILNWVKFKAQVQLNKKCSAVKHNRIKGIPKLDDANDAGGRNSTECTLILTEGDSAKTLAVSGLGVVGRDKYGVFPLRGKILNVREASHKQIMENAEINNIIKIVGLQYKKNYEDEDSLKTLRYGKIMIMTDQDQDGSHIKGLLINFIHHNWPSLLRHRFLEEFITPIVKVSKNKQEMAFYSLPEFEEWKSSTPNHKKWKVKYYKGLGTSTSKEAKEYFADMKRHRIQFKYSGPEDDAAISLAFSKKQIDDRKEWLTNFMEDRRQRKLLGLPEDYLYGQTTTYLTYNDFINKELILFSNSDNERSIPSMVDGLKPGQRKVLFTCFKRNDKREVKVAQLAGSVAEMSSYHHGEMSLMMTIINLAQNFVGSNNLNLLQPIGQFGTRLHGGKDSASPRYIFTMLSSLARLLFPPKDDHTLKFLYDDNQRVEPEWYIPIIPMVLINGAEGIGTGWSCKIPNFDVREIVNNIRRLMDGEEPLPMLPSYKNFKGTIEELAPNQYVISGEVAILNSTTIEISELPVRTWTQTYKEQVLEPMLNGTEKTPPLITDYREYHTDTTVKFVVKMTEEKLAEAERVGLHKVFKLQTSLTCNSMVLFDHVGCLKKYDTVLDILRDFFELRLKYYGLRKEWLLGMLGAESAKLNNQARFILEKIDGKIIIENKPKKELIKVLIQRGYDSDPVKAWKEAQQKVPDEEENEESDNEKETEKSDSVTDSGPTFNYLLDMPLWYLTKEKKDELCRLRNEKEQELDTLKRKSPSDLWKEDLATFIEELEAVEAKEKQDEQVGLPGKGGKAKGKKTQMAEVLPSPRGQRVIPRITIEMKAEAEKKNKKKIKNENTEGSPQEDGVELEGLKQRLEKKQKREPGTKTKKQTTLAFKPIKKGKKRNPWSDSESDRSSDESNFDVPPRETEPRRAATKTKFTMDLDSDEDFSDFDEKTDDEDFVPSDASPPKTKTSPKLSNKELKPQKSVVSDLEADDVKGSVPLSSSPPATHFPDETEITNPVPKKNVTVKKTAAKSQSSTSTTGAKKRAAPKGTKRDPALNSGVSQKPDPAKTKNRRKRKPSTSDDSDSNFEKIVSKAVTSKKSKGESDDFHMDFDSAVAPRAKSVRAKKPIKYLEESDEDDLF

Row | inhibition [3] | inhibition [5] | SMILES | GI50 (MCF7) [µg/mL] | GI50 (UACC-62) [µg/mL] | GI50 (B16-F10) [µg/mL] | GI50 (786-0) [µg/mL] | further results
1 |  |  | CCc1c2c(nc3ccc(OC(=O)N4CCC(N5CCCCC5)CC4)cc13)-c1cc3c(c(=O)n1C2)COC(=O)[C@]3(O)CC |  |  |  |  | inhibition [1]: Active
2 | Active | Active | COc1cccc2[nH]c3c([C@H]4[C@H](C(C)(C)O)CC[C@@]4(O)CO)nccc3c12 |  |  |  |  | inhibition [2]: Active; IC50 (MCF7): 1.8 µg/mL (≈ 4.86 µM); IC50 (UACC-62): 1.7 µg/mL (≈ 4.59 µM); IC50 (786-0): 0.22 µg/mL (≈ 0.594 µM); inhibition [4]: Active
3 | Active | Active | COc1cccc2[nH]c3c([C@H]4[C@H](C(C)(C)O)CC[C@]4(C)O)nccc3c12 | 3 (≈ 8.46 µM) | 2.5 (≈ 7.05 µM) | 19.5 (≈ 55 µM) | 3 (≈ 8.46 µM) | inhibition [6]: Active; inhibition [7]: Active
4 |  |  | COc1cccc2c1C(=O)c1c(O)c3c(c(O)c1C2=O)C[C@@](O)(C(=O)CO)C[C@@H]3O[C@H]1C[C@H](N)[C@H](O)[C@H](C)O1.Cl [DOXORUBICIN HYDROCHLORIDE] | 0.23 | 0.25 | 0.22 | 0.43 | 
5 | Active | Active | COc1cc([C@@H]2c3cc4c(cc3[C@@H](O[C@@H]3O[C@@H]5CO[C@@H](C)O[C@H]5[C@H](O)[C@H]3O)[C@H]3COC(=O)[C@H]23)OCO4)cc(OC)c1O |  |  |  |  | inhibition [8]: Active
